According to patent publication US7538241B2, “Hsp90 family protein inhibitors” (Kyowa Hakko Kogyo Co., Ltd., priority 2003, dated 2009):

These compounds were tested on human mammary cancer-derived KPL-4 cells (assay: Cell growth inhibition test with KPL-4 cells (WST-1)). Conditions: KPL4, 72 hours, read-out: 50% growth inhibition concentration (GI50).
Type: cell-based
Procedure: In a 96-well plate (Nunc), human mammary cancer-derived KPL-4 cells were sown in an amount of 2000 cells/well, and pre-incubated in 10% fetal calf serum (FCS)-containing Dulbecco Modified Eagle Medium (DMEM) (incubation medium) in a 5% carbon dioxide incubator at 37° C. for 24 hours. A dimethylsulfoxide (DMSO) solution of a test compound controlled at 10 mmol/L was stepwise diluted with the incubation medium, and added to each well in a total amount of 100 μL/well, and incubated in the 5% carbon dioxide incubator at 37° C. for 72 hours. After the incubation, WST-1 {4-[3-(4-Iodophenyl)-2-(4-nitrophenyl)-2H-5-tetrazolio]-1,3-benzene disulfonate}-labeled mixture (Rosh Diagnostic) diluted 2-fold with the incubation medium was added thereto in an amount of 20 μL/well, and incubated in the 5% carbon dioxide incubator at 37° C. for 1 hour. Using a microplate spectrophotometer (Biorad's Model 550), the absorbance at 450 nm and 655 nm of each well was measured. The cell growth inhibition activity of the test compound was indicated by the 50% growth inhibition concentration (GI50) thereof. A method of calculating GI50 is described. The absorbance at 655 nm of each well was subtracted from the absorbance at 450 nm thereof to give a value (absorbance difference). The absorbance difference obtained with the cells without being treated with the test compound was taken as 100%, and this was compared with the absorbance difference obtained with the cells treated with the test compound to give the concentration of the compound for 50% cell growth inhibition, and this is referred to as GI50.
`COC(=O)Cc1cc(O)cc(O)c1-c1ccccc1` [Compound 1, Methyl 3,5-dihydroxy-2-phenylphenylacetate] showed a GI50 of at most 50 µM. `COC(=O)Cc1cc(O)cc(O)c1-c1cccc(C=NO)c1` [Compound 3, Methyl 3,5-dihydroxy-2-[3-(hydroxyiminomethyl)phenyl]phenylacetate] showed a GI50 of at most 50 µM. `COC(=O)Cc1cc(O)cc(O)c1-c1cccc(C(C)=O)c1` [Compound 8, Methyl 2-(3-acetylphenyl)-3,5-dihydroxyphenylacetate] showed a GI50 of at most 50 µM. In the case of `COC(=O)Cc1c(Br)c(O)cc(O)c1-c1ccccc1` [Compound 10, Methyl 2-bromo-3,5-dihydroxy-6-phenylphenylacetate], the GI50 is reported as at most 50 µM. Work on `COC(=O)Cc1c(-c2ccccc2)c(O)cc(O)c1-c1ccccc1` [Compound 11, Methyl 3,5-dihydroxy-2,6-diphenylphenylacetate] yielded a GI50 of at most 50 µM. Work on `COC(=O)Cc1c(I)c(O)cc(O)c1-c1ccccc1` [Compound 13, Methyl 3,5-dihydroxy-2-iodo-6-phenylphenylacetate] yielded a GI50 of at most 50 µM. With `O=C(Cc1c(Br)c(O)cc(O)c1-c1ccccc1)NCc1cccnc1` [Compound 17, 2-(2-Bromo-3,5-dihydroxy-6-phenylphenyl)-N-(pyridin-3-ylmethyl)acetamide] the GI50 was at most 50 µM. For `O=C(Cc1c(Br)c(O)cc(O)c1-c1ccccc1)NC1CCN(Cc2ccccc2)CC1` [Compound 18, N-(1-benzylpiperidin-4-yl)-2-(2-bromo-3,5-dihydroxy-6-phenylphenyl)acetamide], the GI50 was at most 50 µM. `COCCNC(=O)Cc1c(Br)c(O)cc(O)c1-c1ccccc1` [Compound 23, 2-(2-Bromo-3,5-dihydroxy-6-phenylphenyl)-N-(2-methoxyethyl)acetamide] gave a GI50 of at most 50 µM. `Oc1cc(O)c(-c2ccccc2)c(COCc2ccccc2)c1Br` [Compound 25, 5-(Benzyloxymethyl)-6-bromo-4-phenylbenzene-1,3-diol] gave a GI50 of at most 50 µM. For `O=C(Cc1c(Br)c(O)cc(O)c1-c1ccccc1)N1CCOCC1` [Compound 35, 2-(2-Bromo-3,5-dihydroxy-6-phenylphenyl)-1-morpholinoethanone], the GI50 was at most 50 µM. Work on `CCCN(C)C(=O)Cc1c(Br)c(O)cc(O)c1-c1ccccc1` [Compound 36, 2-(2-Bromo-3,5-dihydroxy-6-phenylphenyl)-N-methyl-N-propylacetamide] yielded a GI50 of at most 50 µM. Compound `N#Cc1ccccc1N1CCN(C(=O)Cc2c(Br)c(O)cc(O)c2-c2ccccc2)CC1` [Compound 38, 2-(2-Bromo-3,5-dihydroxy-6-phenylphenyl)-1-[4-(2-cyanophenyl)piperazin-1-yl]ethanone] has a GI50 of at most 50 µM. With `NC(=O)Cc1c(Br)c(O)cc(O)c1-c1ccccc1` [Compound 41, 2-(2-Bromo-3,5-dihydroxy-6-phenylphenyl)acetamide] the GI50 was at most 50 µM. For `CN(C)C(=O)Cc1c(Br)c(O)cc(O)c1-c1ccccc1` [Compound 43, 2-(2-Bromo-3,5-dihydroxy-6-phenylphenyl)-N,N-dimethylacetamide], the GI50 was at most 50 µM. `COC(=O)c1c(Br)c(O)cc(O)c1-c1ccccc1` [Compound 47, Methyl 2-bromo-3,5-dihydroxy-6-phenylbenzoate] was tested, and the GI50 was at most 50 µM. Work on `O=C(NCc1ccccc1)c1c(Br)c(O)cc(O)c1-c1ccccc1` [Compound 51, N-benzyl-2-bromo-3,5-dihydroxy-6-phenylbenzamide] yielded a GI50 of at most 50 µM. `O=C(Cc1c(Br)c(O)cc(O)c1-c1ccccc1)NCc1ccncc1` [Compound 54, 2-(2-Bromo-3,5-dihydroxy-6-phenylphenyl)-N-(pyridin-4-ylmethyl)acetamide] was tested, and the GI50 was at most 50 µM. Work on `COC(=O)Cc1c(C=O)c(O)cc(O)c1-c1ccccc1` [Compound 55, Methyl 2-formyl-3,5-dihydroxy-6-phenylphenylacetate] yielded a GI50 of at most 50 µM. Work on `COC(=O)Cc1c(C)c(O)cc(O)c1-c1ccccc1` [Compound 56, Methyl 3,5-dihydroxy-6-methyl-2-phenylphenylacetate] yielded a GI50 of at most 50 µM. With `O=C(c1ccccc1)c1c(Br)c(O)cc(O)c1-c1ccccc1` [Compound 58, 2-Bromo-3,5-dihydroxy-6-phenylphenyl phenyl ketone] the GI50 was at most 50 µM. With `COC(=O)C=Cc1c(Br)c(O)cc(O)c1-c1ccccc1` [Compound 59, Methyl 3-(2-bromo-3,5-dihydroxy-6-phenylphenyl)acrylate] the GI50 was at most 50 µM. With `CC(=O)C=Cc1c(Br)c(O)cc(O)c1-c1ccccc1` [Compound 60, 4-(2-Bromo-3,5-dihydroxy-6-phenylphenyl)but-3-en-2-one] the GI50 was at most 50 µM. `COc1c(Br)c(O)cc(O)c1-c1ccccc1` [Compound 61, 6-Bromo-5-methoxy-4-phenylbenzene-1,3-diol] showed a GI50 of at most 50 µM. For `OCCc1c(Br)c(O)cc(O)c1-c1ccccc1` [Compound 62, 6-Bromo-5-(2-hydroxyethyl)-4-phenylbenzene-1,3-diol], the GI50 was at most 50 µM. With `COCCc1c(Br)c(O)cc(O)c1-c1ccccc1` [Compound 64, 6-Bromo-5-(2-methoxyethyl)-4-phenylbenzene-1,3-diol] the GI50 was at most 50 µM. With `CC(=O)Cc1c(Br)c(O)cc(O)c1-c1ccccc1` [Compound 65, 1-(2-Bromo-3,5-dihydroxy-6-phenylphenyl)propan-2-one] the GI50 was at most 50 µM. Work on `COC(=O)Cc1c(Cc2ccccc2)c(O)cc(O)c1-c1ccccc1` [Compound 70, Methyl 2-benzyl-3,5-dihydroxy-6-phenylphenylacetate] yielded a GI50 of at most 50 µM. `COCCOCc1c(Br)c(O)cc(O)c1-c1ccccc1` [Compound 71, 6-Bromo-5-[(2-methoxyethoxy)methyl]-4-phenylbenzene-1,3-diol] was tested, and the GI50 was at most 50 µM. In the case of `COCCOCCOCc1c(Br)c(O)cc(O)c1-c1ccccc1` [Compound 72, 6-Bromo-5-[2-(2-methoxyethoxy)ethoxymethyl]-4-phenylbenzene-1,3-diol], the GI50 is reported as at most 50 µM. For `COC(=O)Cc1cc(O)cc(O)c1-c1ccc(C(C)=O)cc1` [Compound 73, Methyl 2-(4-acetylphenyl)-3,5-dihydroxyphenylacetate], the GI50 was at most 50 µM. For `COC(=O)Cc1cc(O)cc(O)c1-c1cccc(OC(F)(F)F)c1` [Compound 74, Methyl 3,5-dihydroxy-2-[3-(trifluoromethoxy)phenyl]phenylacetate], the GI50 was at most 50 µM. `COC(=O)Cc1cc(O)cc(O)c1-c1ccc(OC(F)(F)F)cc1` [Compound 75, Methyl 3,5-dihydroxy-2-[4-(trifluoromethoxy)phenyl]phenylacetate] was tested, and the GI50 was at most 50 µM. With `COC(=O)Cc1cc(O)cc(O)c1-c1cccc(CO)c1` [Compound 76, Methyl 3,5-dihydroxy-2-[3-(hydroxymethyl)phenyl]phenylacetate] the GI50 was at most 50 µM. Work on `COC(=O)Cc1cc(O)cc(O)c1-c1cccc([N+](=O)[O-])c1` [Compound 77, Methyl 3,5-dihydroxy-2-(3-nitrophenyl)phenylacetate] yielded a GI50 of at most 50 µM. In the case of `COC(=O)Cc1cc(O)cc(O)c1-c1cccc(C#N)c1` [Compound 78, Methyl 2-(3-cyanophenyl)-3,5-dihydroxyphenylacetate], the GI50 is reported as at most 50 µM. `COC(=O)Cc1cc(O)cc(O)c1-c1ccc(-c2ccccc2)cc1` [Compound 79, Methyl 3,5-dihydroxy-2-(4-phenylphenyl)phenylacetate] gave a GI50 of at most 50 µM. Work on `COC(=O)Cc1cc(O)cc(O)c1-c1ccc(Oc2ccccc2)cc1` [Compound 80, Methyl 3,5-dihydroxy-2-(4-phenoxyphenyl)phenylacetate] yielded a GI50 of at most 50 µM. In the case of `COC(=O)Cc1cc(O)cc(O)c1-c1cccc(OC)c1` [Compound 81, Methyl 3,5-dihydroxy-2-(3-methoxyphenyl)phenylacetate], the GI50 is reported as at most 50 µM. `COC(=O)Cc1cc(O)cc(O)c1-c1ccc(OC)cc1` [Compound 82, Methyl 3,5-dihydroxy-2-(4-methoxyphenyl)phenylacetate] gave a GI50 of at most 50 µM. For `Oc1cc(O)c(-c2ccccc2)c(COCC2CCCO2)c1Br` (centres unmarked) [Compound 85, 6-Bromo-5-[(oxolan-2-ylmethoxy)methyl]-4-phenylbenzene-1,3-diol], the GI50 was at most 50 µM. With `COC(=O)CCc1c(Br)c(O)cc(O)c1-c1ccccc1` [Compound 87, Methyl 3-(2-bromo-3,5-dihydroxy-6-phenylphenyl)propanoate] the GI50 was at most 50 µM. `COc1ccccc1N1CCN(C(=O)Cc2c(Br)c(O)cc(O)c2-c2ccccc2)CC1` [Compound 88, 2-(2-Bromo-3,5-dihydroxy-6-phenylphenyl)-1-[4-(2-methoxyphenyl)piperazin-1-yl]ethanone] gave a GI50 of at most 50 µM. For `CN(CCc1ccccn1)C(=O)Cc1c(Br)c(O)cc(O)c1-c1ccccc1` [Compound 89, 2-(2-Bromo-3,5-dihydroxy-6-phenylphenyl)-N-methyl-N-[2-(pyridin-2-yl)ethyl]acetamide], the GI50 was at most 50 µM. Compound `N#Cc1cccnc1N1CCN(C(=O)Cc2c(Br)c(O)cc(O)c2-c2ccccc2)CC1` [Compound 90, 2-(2-Bromo-3,5-dihydroxy-6-phenylphenyl)-1-[4-(3-cyanopyridin-2-yl)piperazin-1-yl]ethanone] has a GI50 of at most 50 µM. `O=C(Cc1c(Br)c(O)cc(O)c1-c1ccccc1)N1CCN(C(=O)c2ccco2)CC1` [Compound 91, 2-(2-Bromo-3,5-dihydroxy-6-phenylphenyl)-1-[4-(2-furoyl)piperazin-1-yl]ethanone] showed a GI50 of at most 50 µM. Compound `COCCc1c(CC(C)=O)c(O)cc(O)c1-c1ccccc1` [Compound 94, 1-[2,4-Dihydroxy-6-(2-methoxyethyl)-5-phenylphenyl]propanone] has a GI50 of at most 50 µM.
